Here are results for 52 compounds from PubChem BioAssay AID789 (SRMLSC, 2007).

Active and inactive are the calls of the source. No rule for the calls is given here.

Assay [1] is described as follows: growth inhibition of apl2Δ yeast, dose response, selectivity assay for post-Golgi transport modulator project, S. cerevisiae, secondary screen, background strain comparison (AID 789). The note with it: S. cerevisiae background (wild-type parent) strain growth inhibition.
For assay [2], the system named is S. cerevisiae apl2Δ mutant growth inhibition. The description is as above.

Usually IC50 stands for the point on the concentration scale where inhibition reaches its midpoint. With `CC1=CC(C)(C)Nc2ccc(OC(=O)CN3C(=O)c4cccc5cccc(c45)C3=O)cc21`, the IC50 in assay [1] was greater than 10 µM; in assay [2], > 10 µM (inactive).

Consider `Cc1c(C)c2cc(Cl)c(O)c(CN3CCN(C)CC3)c2oc1=O`, for which the IC50 in assay [1] is greater than 10 µM; in assay [2], > 10 µM (inactive).

For `COc1cc2[nH]c(=S)n(CCCN3CCOCC3)c(=O)c2cc1OC`, the IC50 in assay [1] was greater than 10 µM; in assay [2], > 10 µM (inactive).

`c1coc(CNc2nc(N3CCCCC3)nc3ccccc23)c1`: the IC50 in assay [1] was greater than 10 µM; in assay [2] it was > 10 µM (inactive).

In the case of `Cc1cc(C)nc(NC(=O)CSc2nn(C)c(=S)s2)n1`, the IC50 in assay [1] is greater than 10 µM; in assay [2], > 10 µM (inactive).

In the case of `CCCCOc1ccc(-c2ncc(C(=O)O)c(C)n2)cc1`, the IC50 in assay [1] is greater than 10 µM; in assay [2] it was > 10 µM (inactive).

Turning to `CCOC(=O)C(C)Oc1ccc2c(C)cc(=O)oc2c1C(C)=O` (centres undefined), the IC50 was greater than 10 µM in assay [1] and > 10 µM (inactive) in assay [2].

Turning to `C=CCc1ccccc1OCC(O)CN1CCN(Cc2ccc3c(c2)OCO3)CC1` (centres undefined), the IC50 in assay [1] is greater than 10 µM; in assay [2], 19.6 µM.

As for `COCCNc1cc(C)nc2c3c(C)cc(C)nc3nn12`, the figures for the concentration for half-maximal inhibition (IC50) in assay [1] and in assay [2] were greater than 10 µM and > 10 µM (inactive), respectively.

As to `CCN(CC)C(=O)C1CCN(Cc2ccc(Br)cc2)CC1`, the IC50 was greater than 10 µM in assay [1] and > 10 µM (inactive) in assay [2].

For `COc1ccc(-c2cc(N)n(S(=O)(=O)c3c(F)c(F)c(F)c(F)c3F)n2)cc1OC`, the half-maximal inhibitory concentration (IC50) in assay [1] was 1.08 µM; in assay [2], 9.68 µM (inactive).

Regarding `CCOC(=O)c1cc2c(ccn2C)n1CC(=O)N1CCN(c2ccccc2OC)CC1`, the IC50 in assay [1] was greater than 10 µM; in assay [2] it was > 10 µM (inactive).

`CCn1c(SCC(=O)N2CCCc3ccccc32)nnc1-c1ccco1`: the concentration for half-maximal inhibition (IC50) in assay [1] is greater than 10 µM; in assay [2] it was > 10 µM (inactive).

For the compound `CCOCCCNC(=O)c1cc2sc(Cl)cc2n1CC`, the 50% inhibitory concentration (IC50) in assay [1] is greater than 10 µM; in assay [2] it was > 10 µM (inactive).

Take `Cc1cc(OCC(F)(F)C(F)(F)C(F)(F)C(F)(F)C(F)(F)C(F)F)nc(N)n1`: the half-maximal inhibitory concentration (IC50) was greater than 10 µM in assay [1] and > 10 µM (inactive) in assay [2].

As for `COc1cc(CN2CCN(c3ccc(C)cc3)CC2)cc([N+](=O)[O-])c1O`, the IC50 in assay [1] is greater than 10 µM; in assay [2] it was > 10 µM (inactive).

As for `NC(=O)c1c(NC(=O)CN2C(=O)CCC2=O)sc2c1CCCCC2`, the IC50 in assay [1] is greater than 10 µM; in assay [2], > 10 µM (inactive).

Regarding `Cc1sc(NC(=O)c2ccco2)c(C(c2cccnc2)N2CCC(C)CC2)c1C` (centres undefined), the IC50 in assay [1] was 5.77 µM; in assay [2], 13.9 µM (inactive).

Consider `CCN(CC)c1ccc(CN2CC=C(c3ccc(F)cc3)CC2)cc1`, for which the IC50 is 25.8 µM in assay [1] and 17.3 µM in assay [2].

As for `O=C1OCC(CO)(CO)N=C1NNc1ccc(Cl)c(Cl)c1`, the IC50 in assay [1] is 3.35 µM; in assay [2], 4.53 µM (inactive).

As to `CC(=O)c1cnc2nc(C)nn2c1C`, the IC50 in assay [1] is greater than 10 µM; in assay [2], > 10 µM (inactive).

Turning to `c1ccc(COc2ccc(CN3CCN(c4ccccn4)CC3)cc2)cc1`, the IC50 is greater than 10 µM in assay [1] and > 10 µM (inactive) in assay [2].

For `O=c1c2c3c(sc2ncn1/N=C/c1ccc([N+](=O)[O-])o1)CCCC3`, the IC50 was 1.59 µM in assay [1] and 2.1 µM (inactive) in assay [2].

On to `Cc1cc(N2C(=O)C3CCCN3C2c2sccc2C)no1` (centres undefined), for which the IC50 in assay [1] was greater than 10 µM; in assay [2], > 10 µM (inactive).

As to `O=C1OCC2=C1C(c1ccc(F)cc1)Sc1ccccc1N2` (centres undefined), the values for the IC50 in assay [1] and in assay [2] were greater than 10 µM and > 10 µM (inactive), respectively.

On to `Nc1c(C(=O)OCC2CCCO2)c2nc3ccccc3nc2n1-c1ccc2c(c1)OCCO2` (centres undefined), for which the IC50 in assay [1] was greater than 10 µM; in assay [2], > 10 µM (inactive).

For `O=C1c2cccc3c([N+](=O)[O-])ccc(c23)C(=O)N1c1ccc(Cl)cn1`, the IC50 in assay [1] is 6.08 µM; in assay [2], 14.5 µM (inactive).

Regarding `O=C(NCc1ccc2c(c1)OCO2)C1CCCN1C(=O)Nc1ccccc1` (centres undefined), the results for the half-maximal inhibitory concentration (IC50) in assay [1] and in assay [2] were greater than 10 µM and > 10 µM (inactive), respectively.

Consider `COc1ccc(C(=O)Nc2ccc(Cl)cc2C(=O)N2CCCC(C)C2)cc1` (centres undefined), for which the values for the IC50 in assay [1] and in assay [2] were greater than 10 µM and 22.4 µM, respectively.

In the case of `COc1ccccc1N1CCN(C2CCN(C(=O)c3cc(OC)c(OC)c(OC)c3)CC2)CC1`, the IC50 was greater than 10 µM in assay [1] and > 10 µM (inactive) in assay [2].

Consider `CCCn1c(SCc2cc(=O)oc3ccc4ccccc4c23)n[nH]c1=O`, for which the results for the 50% inhibitory concentration (IC50) in assay [1] and in assay [2] were greater than 10 µM and > 10 µM (inactive), respectively.

As for `Cc1ccc(S(=O)(=O)c2c(C)nn(C(C)(C)C)c2OC(=O)c2ccc(Br)o2)cc1`, the IC50 is greater than 10 µM in assay [1] and > 10 µM (inactive) in assay [2].

On to `Cc1ccc(SC(C)C(=O)Nc2ncn[nH]2)cc1` (centres undefined), for which the figures for the IC50 in assay [1] and in assay [2] were greater than 10 µM and > 10 µM (inactive), respectively.

Regarding `Cc1ccc(C)c(NS(=O)(=O)c2cc(C(=O)N3CCc4ccccc4C3)ccc2Cl)c1`, the values for the IC50 in assay [1] and in assay [2] were 6.88 µM and 5.74 µM, respectively.

Consider `CCC(C)(C)n1nnnc1C(c1cc2cc3c(cc2[nH]c1=O)OCO3)N1CCN(C)CC1` (centres undefined), for which the IC50 in assay [1] was greater than 10 µM; in assay [2] it was > 10 µM (inactive).

Consider `COCCCNc1ccnc2c(Cl)cccc12`, for which the IC50 is greater than 10 µM in assay [1] and > 10 µM (inactive) in assay [2].

In the case of `Cc1cccc(-c2c3c(=O)n(C)c(=O)n(C)c3cn2C2CCCCC2)c1`, the IC50 was greater than 10 µM in assay [1] and > 10 µM (inactive) in assay [2].

Turning to `CCOC(=O)C(NC(C)=O)(Nc1ccc(S(=O)(=O)Nc2onc(C)c2C)cc1)C(F)(F)F` (centres undefined), the 50% inhibitory concentration (IC50) in assay [1] is greater than 10 µM; in assay [2], > 10 µM (inactive).

On to `O=C(CCl)c1ccc(Cc2ncc(C(F)(F)F)cc2Cl)s1`, for which the IC50 was 8.68 µM in assay [1] and > 10 µM (inactive) in assay [2].

Consider `O=C(NCc1ccc2c(c1)OCO2)c1ccc(CS(=O)(=O)c2cccc(C(F)(F)F)c2)o1`, for which the results for the IC50 in assay [1] and in assay [2] were greater than 10 µM and > 10 µM (inactive), respectively.

Turning to `Cc1ccc(/C=N/n2cnc3sc(-c4ccccc4)cc3c2=O)o1`, the IC50 in assay [1] was greater than 10 µM; in assay [2] it was > 10 µM (inactive).

On to `c1ccc2c(c1)oc1c(Nc3ccc(CN4CCOCC4)cc3)ncnc12`, for which the results for the IC50 in assay [1] and in assay [2] were greater than 10 µM and > 10 µM (inactive), respectively.

With `O=C(NCCSCc1ccc(Cl)cc1Cl)c1ccc(CN2CCOCC2)cc1`, the values for the 50% inhibitory concentration (IC50) in assay [1] and in assay [2] were greater than 10 µM and > 10 µM (inactive), respectively.

As to `CCCOc1ccccc1N/C(=N/c1nc(C)cc(C)n1)NC(=O)COc1ccc(OC)cc1`, the IC50 in assay [1] is greater than 10 µM; in assay [2] it was > 10 µM (inactive).

Turning to `CCOC(=O)COc1ccccc1C1Nc2ccccc2C(=O)N1c1cccc(Cl)c1` (centres undefined), the IC50 is greater than 10 µM in assay [1] and > 10 µM (inactive) in assay [2].

With `CCCCC1(CCCC)C(=O)NC(=Nc2cccc(C)c2)NC1=O`, the IC50 in assay [1] is greater than 10 µM; in assay [2], > 10 µM (inactive).

In the case of `Cc1cc2ncn(CC(O)COc3cccc(C(=O)O)c3)c2cc1C` (centres undefined), the half-inhibitory concentration (IC50) in assay [1] is greater than 10 µM; in assay [2], > 10 µM (inactive).

With `COc1ccc(-c2nnc(CSc3nc4ccccc4c(=O)n3C)o2)cc1OC`, the IC50 in assay [1] was greater than 10 µM; in assay [2], > 10 µM (inactive).

Regarding `Cc1nn(Cc2cccc(C(=O)NC(C)c3ccc(C(C)(C)C)cc3)c2)c(C)c1[N+](=O)[O-]` (centres undefined), the half-maximal inhibitory concentration (IC50) in assay [1] was greater than 10 µM; in assay [2], > 10 µM (inactive).

For `COc1ccc(C2C3=C(CCCC3=O)Nc3nc(-c4cc(OC)c(OC)c(OC)c4)nn32)cc1OC` (centres undefined), the concentration for half-maximal inhibition (IC50) in assay [1] is greater than 10 µM; in assay [2], > 10 µM (inactive).

For `CCn1c(-c2c[nH]c3ccccc23)n[nH]c1=S`, the IC50 in assay [1] was greater than 10 µM; in assay [2], > 10 µM (inactive).

Turning to `N#CC1=C(N)NC(SCc2ccc(F)cc2)=C(C#N)C12CCCCC2`, the values for the 50% inhibitory concentration (IC50) in assay [1] and in assay [2] were 16.3 µM and 7.78 µM, respectively.
